Data: BindingDB's records for doi:10.1021/jm9600611 (Cytel, 1996)

Experiment: Compound was tested for the inhibition of E-selectin-mediated cellular adhesion
CCO[C@@H]1O[C@@H](CO)[C@H](O)[C@H](O[C@@H]2O[C@@H](CO)[C@@H](O[C@@H]3O[C@@H](CO)[C@H](O)[C@H](O[C@]4(C(=O)O)C[C@@H](O)[C@@H](NC(C)=O)[C@H]([C@H](O)[C@H](O)CO)O4)[C@@H]3O)[C@H](O[C@@H]3O[C@@H](C)[C@@H](O)[C@H](O)[C@@H]3O)[C@@H]2NC(=O)c2ccc3ccccc3c2)[C@@H]1O [Ethyl(Sodium 5-actamido-3,5-dideoxy-alpha-D-glycero-D-galacto-nonulopyronosylonate)-(2,3)-O-(beta-D-galactopyranosyl)-(1,4)-O(alpha-L-fucopyranosyl)-(1,3)-O-[2-(2-naphthamido)-2-deoxy-beta-D-glucopyranosyl]-(1,3)-O-beta-D-galactopyranoside] gave an IC50 of 80 µM. Work on CCO[C@@H]1O[C@@H](CO)[C@H](O)[C@H](O[C@@H]2O[C@@H](CO)[C@@H](O[C@@H]3O[C@@H](CO)[C@H](O)[C@H](O[C@]4(C(=O)O)C[C@@H](O)[C@@H](NC(C)=O)[C@H]([C@H](O)[C@H](O)CO)O4)[C@@H]3O)[C@H](O[C@@H]3O[C@@H](C)[C@@H](O)[C@H](O)[C@@H]3O)[C@@H]2NC(=O)C2CCCCC2)[C@@H]1O [Ethyl(Sodium 5-actamido-3,5-dideoxy-alpha-D-glycero-D-galacto-nonulopyronosylonate)-(2,3)-O-(beta-D-galactopyranosyl)-(1,4)-O(alpha-L-fucopyranosyl)-(1,3)-O-[2-(Cyclohexanecarboxylic acid amido)-2-deoxy-beta-D-glucopyranosyl]-(1,3)-O-beta-D-galactopyranoside] yielded an IC50 of 2900 µM. CCO[C@@H]1O[C@@H](CO)[C@H](O)[C@H](O[C@@H]2O[C@@H](CO)[C@@H](O[C@@H]3O[C@@H](CO)[C@H](O)[C@H](O[C@]4(C(=O)O)C[C@@H](O)[C@@H](NC(C)=O)[C@H]([C@H](O)[C@H](O)CO)O4)[C@@H]3O)[C@H](O[C@@H]3O[C@@H](C)[C@@H](O)[C@H](O)[C@@H]3O)[C@@H]2NC(C)=O)[C@@H]1O [Ethyl(Sodium 5-actamido-3,5-dideoxy-alpha-D-glycero-D-galacto-nonulopyronosylonate)-(2,3)-O-(beta-D-galactopyranosyl)-(1,4)-O(alpha-L-fucopyranosyl)-(1,3)-O-[2-(N-acetylamido)-2-deoxy-beta-D-glucopyranosyl]-(1,3)-O-beta-D-galactopyranoside(N-acetyl SLex)] gave an IC50 of 1000 µM. For CCO[C@@H]1O[C@@H](CO)[C@H](O)[C@H](O[C@@H]2O[C@@H](CO)[C@@H](O[C@@H]3O[C@@H](CO)[C@H](O)[C@H](O[C@]4(C(=O)O)C[C@@H](O)[C@@H](NC(C)=O)[C@H]([C@H](O)[C@H](O)CO)O4)[C@@H]3O)[C@H](O[C@@H]3O[C@@H](C)[C@@H](O)[C@H](O)[C@@H]3O)[C@@H]2NC(=O)c2ccccc2)[C@@H]1O [Ethyl(Sodium 5-actamido-3,5-dideoxy-alpha-D-glycero-D-galacto-nonulopyronosylonate)-(2,3)-O-(beta-D-galactopyranosyl)-(1,4)-O(alpha-L-fucopyranosyl)-(1,3)-O-[2-(benzamido)-2-deoxy-beta-D-glucopyranosyl]-(1,3)-O-beta-D-galactopyranoside], the IC50 was 300 µM.
